The text below walks through data of ChEMBL document CHEMBL1130782, “Syntheses and evaluation of benzodiazaborine compounds against M. tuberculosis H37Rv in vitro” (1998).

Values after ≈ are worked out from the molar mass of the structure shown.

Format in all cases: functional
The subject of experiment [1] is Mycobacterium tuberculosis. The experiment in a line: Compound was tested in vitro for growth inhibition activity against Mycobacterium tuberculosis H37Rv in Bactec 6A media.
For experiment [2], the system named is Escherichia coli. The experiment in a line: Compound was tested in vitro for growth inhibition activity against Escherichia coli.
The subject of experiment [3] is Mycobacterium tuberculosis. The experiment in a line: Compound was tested in vitro for growth inhibition activity against Mycobacterium tuberculosis H37Rv in Bactec 12B media.

Regarding `Cc1ccc(S(=O)(=O)N2N=Cc3ccccc3B2O)cc1`, the values for the MIC in experiment [1], in experiment [2] and in experiment [3] were 40 µM (≈ 12 µg/mL), 83 µM (≈ 24.9 µg/mL) and 320 µM (≈ 96 µg/mL), respectively.
Consider `O=C1Nc2ccccc2B(O)N1c1ccccc1`, for which the MIC (usually the lowest concentration found to suppress growth) in experiment [1] came to 33.6 µM (≈ 8 µg/mL); in experiment [3], 67.2 µM (≈ 16 µg/mL).
With `NCCOB(c1ccccc1)c1ccccc1`, the values for the MIC in experiment [1] and in experiment [3] were 71 µM (≈ 16 µg/mL) and 285 µM (≈ 64.2 µg/mL), respectively.
In the case of `OB1N=C(c2cnccn2)Nc2ccccc21`, the MIC in experiment [1] and in experiment [3] was greater than 572 µM in each case.
With `CCCCN1B(O)c2ccccc2NC1=O`, the MIC in experiment [1] and in experiment [3] was greater than 587 µM throughout.
For `OB1c2ccccc2N=C(S)N1c1cccnc1`, the MIC in experiment [1] stood at 31.4 µM (≈ 8.01 µg/mL); in experiment [3], 63 µM (≈ 16.1 µg/mL).
Take `NNC(=O)c1ccncc1` [ISONIAZID]: the MIC in experiment [1] was less than 0.02 µM; in experiment [3], less than 0.16 µM.
`NC(=O)c1cnccn1` [PYRAZINAMIDE]: the values for the MIC in experiment [1] and in experiment [3] were 1600 µM (≈ 197 µg/mL) and greater than 1600 µM, respectively.
